Target: T1, glucokinase (GK) (Homo sapiens, UniProt P35557)
T1 construct: I.D. No. 1 corresponds to residues 12-465 of glucokinase; made in house; host or cells: E. coli DH10b-T1r
T1 sequence (P35557 with tags, fused parts or gaps isoform P35557-2): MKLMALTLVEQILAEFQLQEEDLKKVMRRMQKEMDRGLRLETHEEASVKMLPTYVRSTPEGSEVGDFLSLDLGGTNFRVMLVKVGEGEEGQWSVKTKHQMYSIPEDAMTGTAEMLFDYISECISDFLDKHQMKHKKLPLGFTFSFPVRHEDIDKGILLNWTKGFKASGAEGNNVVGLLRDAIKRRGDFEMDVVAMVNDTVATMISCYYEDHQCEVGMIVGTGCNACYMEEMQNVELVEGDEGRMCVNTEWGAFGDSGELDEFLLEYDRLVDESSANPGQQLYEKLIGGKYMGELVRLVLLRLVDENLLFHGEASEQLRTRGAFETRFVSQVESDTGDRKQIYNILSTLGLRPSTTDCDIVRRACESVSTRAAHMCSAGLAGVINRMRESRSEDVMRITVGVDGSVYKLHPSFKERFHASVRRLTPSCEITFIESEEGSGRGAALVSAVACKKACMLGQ
Experiment: enzymatic glucokinase activity assay (ATP consumption, KinaseGlo luminescence)
Type: biochemical
Conditions: 5 mM Glucose, 5 μM ATP; for Emax: calculated maximal gain in GK enzyme activity at a saturating concentration of the compound, read-out: % ACTmax; for EC50: negative log of Kact, the concentration that displays 50% of the maximal increase in GK activity, 60 min at room temperature, read-out: pKact
From the text: The activity of compounds as glucokinase activators may be assayed in vitro, in vivo or in a cell line. Provided below is an enzymatic glucokinase activity assay.
Purified glucokinase may be obtained as follows. DNA encoding residues 12-465 of the full-length sequence of the human enzyme may be amplified by PCR and cloned into the HindIII and EcoRI sites of pFLAG-CTC (Sigma). SEQ. I.D. No. 1 corresponds to residues 12-465 of glucokinase.
The expression of recombinant glucokinase protein may be carried out by transformation and growth of DH10b-T1r E. coli cells incorporating the (pFLAG-CTC) plasmid in LB media. Protein expression can be induced in this system by the addition of IPTG to the culture medium.
Recombinant protein may be isolated from cellular extracts by passage over Sepharose Q Fast Flow resin (Pharmacia). This partially purified GK extract may then be further purified by a second passage over Poros HQ10 (Applied Biosystems). The purity of GK may be determined on denaturing SDS-PAGE gel. Purified GK may then be concentrated to a final concentration of 20.0 mg/ml. After flash freezing in liquid nitrogen, the proteins can be stored at −78° C. in a buffer containing 25 mM TRIS-HCl pH 7.6, 50 mM NaCl, and 0.5 mM TCEP.
The activation properties of compounds for GK may be determined using a black 384-well-plate format under the following reaction conditions: 25 mM Hepes pH 7.2, 25 mM NaCl, 10 mM MgCl2, 0.01% Brij35, 1 mM DTT, 5 μM ATP, 5 mM Glucose 2% DMSO. The amount of ATP consumed may be determined quantitatively by addition of equal volume of luciferase reagent (luciferase+beetle luciferin—KinaseGlo Luminescent Kinase Assay kit from Promega). The luminescence intensity may be measured by using the Analyst HT from LJL Biosystems.
The assay reaction may be initiated as follows: 4 μl of substrate mixture (12.5 μM ATP and 12.5 mM Glucose) was added to each well of the plate, followed by the addition of 2 μl of activator (2 fold serial dilutions for 11 data points for each activator) containing 10% DMSO. 4 μL of 1.25 nM GK solution may be added to initiate the reaction. The reaction mixture may then be incubated at room temperature for 60 min, and quenched and developed by addition of 10 μL of luciferase reagent. Luminescence intensities of the resulting reaction mixtures may be measured after a 10 min incubation at room temperature. The luminescence intensity may be measured by using the Analyst HT from LJL Biosystems.
pKact and % ACTmax values may be calculated by non-linear curve fitting of the compound concentrations and luminescence intensities to a standard inhibition/activation equation. […] “pKact” is the negative log of the Kact value; i.e., −log10 [Kact]. % Actmax represents the calculated maximal gain in GK enzyme activity at a saturating concentration of the compound. pKact and % ACTmax values for select compounds of the present invention are given in Table 1.

SMILES | Emax [%] | EC50 [µM]
CC(C)CC(C(=O)Nc1nccs1)n1cc2ccccc2n1 (stereo not drawn) [Example 2, 2-(2H-indazol-2-yl)-4-methyl-N-(thiazol-2-yl)pentanamide] | > 60 | ≥ 31.6
CC(C)CC(C(=O)Nc1nccs1)n1cc2cc(F)ccc2n1 (stereo not drawn) [Example 3, 2-(5-fluoro-2H-indazol-2-yl)-4-methyl-N-(thiazol-2-yl)pentanamide] | 50 to 60 | ≥ 31.6
CC(C)CC(C(=O)Nc1nccs1)n1cc2ccc([N+](=O)[O-])cc2n1 (stereo not drawn) [Example 4, 4-methyl-2-(6-nitro-2H-indazol-2-yl)-N-(thiazol-2-yl)pentanamide] | < 50 | ≤ 10
CC(C)CC(C(=O)Nc1nccs1)n1cc2ccc(S(C)(=O)=O)cc2n1 (stereo not drawn) [Example 5, 4-methyl-2-(6-(methylsulfonyl)-2H-indazol-2-yl)-N-(thiazol-2-yl)pentanamide] | < 50 | 12.6 to 25.1
COc1ccc2nn(C(CC(C)C)C(=O)Nc3nccs3)cc2c1 (stereo not drawn) [Example 6, 2-(5-methoxy-2H-indazol-2-yl)-4-methyl-N-(thiazol-2-yl)pentanamide] | 50 to 60 | ≥ 31.6
CC(C)CC(C(=O)Nc1nccs1)n1cc2cc(O)ccc2n1 (stereo not drawn) [Example 7, 2-(5-hydroxy-2H-indazol-2-yl)-4-methyl-N-(thiazol-2-yl)pentanamide] | > 60 | ≥ 31.6
Cc1c2ccccc2nn1C(CC(C)C)C(=O)Nc1nccs1 (stereo not drawn) [Example 8, 4-methyl-2-(3-methyl-2H-indazol-2-yl)-N-(thiazol-2-yl)pentanamide] | < 50 | ≤ 10
Cc1c2cc(F)ccc2nn1C(CC(C)C)C(=O)Nc1nccs1 (stereo not drawn) [Example 9, 2-(5-fluoro-3-methyl-2H-indazol-2-yl)-4-methyl-N-(thiazol-2-yl)pentanamide] | 50 to 60 | 12.6 to 25.1
N=C1c2ccccc2CN1C(CC1CCCCC1)C(=O)Nc1nccs1 (stereo not drawn) [Example 11, 3-cyclohexyl-2-(1-iminoisoindolin-2-yl)-N-(thiazol-2-yl)propanamide] | > 60 | ≤ 10
N=C1c2cc(F)ccc2CN1C(CC1CCCCC1)C(=O)Nc1nccs1 (stereo not drawn) [Example 12, 3-cyclohexyl-2-(6-fluoro-1-iminoisoindolin-2-yl)-N-(thiazol-2-yl)propanamide] | > 60 | 12.6 to 25.1
CC(C)CC(C(=O)Nc1nccs1)N1C(=O)c2ccccc2C1=O (stereo not drawn) [Example 13, 2-(1,3-dioxoisoindolin-2-yl)-4-methyl-N-(thiazol-2-yl)pentanamide] | > 60 | ≤ 10
CC(C)CC(C(=O)Nc1ccccn1)N1C(=O)c2ccccc2C1=O (stereo not drawn) [Example 14, 2-(1,3-dioxoisoindolin-2-yl)-4-methyl-N-(pyridin-2-yl)pentanamide] | > 60 | 12.6 to 25.1
